Measured values published in patent publication US6395719B1, “Methods for increasing levels of acetylcholine” (Eli Lilly and Company, priority 1998, dated 2002).

Assays:
[1] = system: choline acetyltransferase (ChAT); assay: ChAT activity in hippocampus and frontal cortex homogenates of ovariectomized rats, radio-labelled assay of acetylcholine bio-synthesis; assay type: in vivo, female Sprague-Dawley rats; settings: daily s.c. or oral gavage for 3 or 10 days, raloxifene HCl 3 mg/kg/day, estradiol benzoate 0.03 or 0.3 mg/kg/day; for levels of ChAT, difference from the sham controls: OVX rats
Protocol: Forty female Sprague-Dawley rats (weight range of 300 to 325 g, six months old) are obtained from Harlan. The animals are either bilaterally ovariectomized (OVX) or exposed to a Sham surgical procedure, and then shipped after two weeks. Upon arrival, they are housed in metal hanging cages in groups of 3 or 4 per cage and have ad libitum access to food and water for one week. Room temperature is maintained at 22.2°±1.70° C. with a minimum relative humidity of 40%. The photoperiod in the room is 12 hours light and 12 hours dark.
The animals are dosed daily by subcutaneous injection or oral gavage with either raloxifene hydrochloride, at 3 mg/kg/day in a vehicle containing 10% cyclodextrin, estradiol benzoate at 0.03 or 0.3 mg/kg/day, or vehicle control. Animals were treated for 3 or 10 days. There are twenty animals per each dosing regimen. At the appropriate time intervals, the animals are sacrificed and their brains dissected. The particular portions of the brains are homogenized and assayed. Homogenates from the hippocampus and frontal cortex were processed and determination of ChAT activity was made by a radio-labelled assay of the bio-synthesis of acetylcholine. This procedure may be found in Schoepp et al., J. Neural Transmiss., 78:183-193, 1989, the teachings of which are incorporated by reference.

[2] = system: cognitive and memory functions; assay: Prophylactic use: cognitive and memory function by standard tests in peri- or post-menopausal women; assay type: in vivo, human; settings: 60 mg/day oral for 1-5 years
Protocol: The methods of the present invention may also be employed in a prophylactic modality. For example, a group of peri- or post-menopausal women may have their cognitive and memory function evaluated by standard tests. Following the establishment of this baseline, the women are administered raloxifene hydrochloride at 60 mg/day, via the oral route, for a period 1-5 years.

Alzheimer's disease = assay: Amelioration of Alzheimer's disease in post-menopausal women on chronic administration; assay type: in vivo, human; settings: post-menopausal women with Alzheimer's disease; 60 mg per day oral; after 2-12 months
Excerpt: Thus, the current invention provides methods for the treatment and prophylaxis of syndromes related to the loss of memory, learning, and cognitive function, often seen in women who are estrogen deprived, especially post-menopausal women. An example of such a syndrome is senile dementia of the Alzheimer's type. Beneficial effects, such as a decrease in memory loss, associated with administration of a compound of this invention become apparent after chronic administration.

Row | Structure (SMILES) | levels of ChAT, difference from the sham controls [1] | levels of ChAT versus the OVX controls [1] | loss of cognitive and memory functions relative to placebo [2] | effect on Alzheimer's disease (Alzheimer's disease)
1 | Cl.O=C(c1ccc(OCCN2CCCCC2)cc1)c1c(-c2ccc(O)cc2)sc2cc(O)ccc12 [raloxifene hydrochloride, [2-(4-hydroxyphenyl)-6-hydroxybenzo[b]thien-3-yl][4-[2-(1-piperidinyl)ethoxy]phenyl]methanone hydrochloride] | insignificant difference | significantly (p<0.05) increased | decrease in loss of these functions | amelioration of their disease
2 | C[C@]12CC[C@@H]3c4ccc(OC(=O)c5ccccc5)cc4CC[C@H]3[C@@H]1CC[C@@H]2O [estradiol benzoate, reference compound] | insignificant difference | significantly (p<0.05) increased | – | –
